Laboratory results published in patent US20090312406A1, “COUMARIN COMPOUNDS AND THEIR USE FOR TREATING VIRAL INFECTION” (priority 2008, published 2009).

system: Influenza A/WSN/33 (H1N1) virus; assay: In vitro anti-influenza virus assay (neutralization test), cytopathic effect on MDCK cells; format: cell-based; settings: MDCK cells, 72 h, lower bound (10 nM), upper in μM, read-out: IC50 (concentration reducing virus-induced cytopathic effect by 50%)
Protocol: Anti-influenza activities of the coumarin compounds were evaluated by measuring the ability of a test compound to inhibit the cytopathic effect induced by an influenza virus on MDCK cells. The 96-well tissue culture plates were seeded with 200 μL of MDCK cells at a concentration of 1.1×10^5 cells/mL in DMEM with 10% fetal bovine serum (FBS). The plates were incubated for 24-30 h at 37° C. and were used at about 90% confluency. Influenza A/WSN/33 (H1N1) virus (100 TCID50) was added to the cells and incubated at 35° C. for 1 h. After adsorption, the infected cell plates were overlaid with 50 μL of DMEM plus 2% FBS and a test compound with different concentrations. The plate was incubated at 35° C. for 72 h. At the end of incubation, the plates were fixed by the addition of 100 μL of 4% formaldehyde for 1 h at room temperature. After the removal of formaldehyde, the plates were stained with 0.1% crystal violet for 15 min at room temperature. The plates were washed and dried, and the density of the well was measured at 570 nm. The concentration required for a test compound to reduce the virus-induced cytopathic effect (CPE) by 50% relative to the virus control was expressed as IC50.
Compounds 1 and 95 were also tested on various influenza virus strains. Amantadine or Relenza was also tested for comparison. IC50 is defined as the concentration required for a test compound to reduce the virus-induced cytopathic effect (CPE) by 50% relative to the virus control.

Row | Compound | IC50 [nM]
1 | Cc1cc(=O)oc2c1ccc1oc(C(=O)c3cc(F)ccc3F)c(-c3ccccc3)c12 [Compound 61] | 10 to 999
2 | Cc1cc(=O)oc2c1ccc1oc(C(=O)c3ccccc3)c(-c3ccccc3F)c12 [Compound 132] | 10 to 999
3 | O=C(c1ccccc1)c1oc2ccc3c(C(F)(F)F)cc(=O)oc3c2c1-c1ccccc1 [Compound 11] | 10 to 999
4 | COc1cccc(C(=O)c2oc3ccc4c(C)cc(=O)oc4c3c2-c2ccccc2)c1 [Compound 31] | 10 to 999
5 | Cc1cc(=O)oc2c1ccc1oc(C(=O)c3cccc(OCCCCCCO)c3)c(-c3ccccc3)c12 [Compound 188] | 10 to 999
6 | Cc1cc(=O)oc2c1ccc1oc(C(=O)c3ccccc3)c(-c3cccc(C#N)c3)c12 [Compound 143] | 10 to 999
7 | Cc1cc(=O)oc2c1ccc1oc(C(=O)c3ccsc3)c(-c3ccccc3)c12 [Compound 96] | 10 to 999
8 | COc1cccc(C(=O)c2oc3ccc4c(C)cc(=O)oc4c3c2-c2cccc(C)c2)c1 [Compound 247] | 10 to 999
9 | Cc1cc(=O)oc2c1ccc1oc(C(=O)c3ccccc3)c(-c3cccc(Br)c3)c12 [Compound 139] | 10 to 999
10 | CCCOc1cccc(C(=O)c2oc3ccc4c(C)cc(=O)oc4c3c2-c2ccccc2)c1 [Compound 69] | 10 to 999
11 | CCCCCOc1cccc(C(=O)c2oc3ccc4c(C)cc(=O)oc4c3c2-c2ccccc2)c1 [Compound 71] | 10 to 999
12 | CC(=O)OCCCCCCOc1cccc(C(=O)c2oc3ccc4c(C)cc(=O)oc4c3c2-c2ccccc2)c1 [Compound 237] | 10 to 999
13 | COc1cccc(C(=O)c2oc3ccc4c(C)cc(=O)oc4c3c2-c2cccc(F)c2)c1 [Compound 246] | 10 to 999
14 | Cc1cc(=O)oc2c1ccc1oc(C(=O)c3cccc(C(F)(F)F)c3)c(-c3ccccc3)c12 [Compound 36] | 10 to 999
15 | Cc1cc(=O)oc2c1ccc1oc(C(=O)c3ccccn3)c(-c3ccccc3)c12 [Compound 115] | 10 to 999
16 | Cc1cc(=O)oc2c1ccc1oc(C(=O)c3ccco3)c(-c3ccccc3)c12 [Compound 92] | 10 to 999
17 | Cc1cc(=O)oc2c1ccc1oc(C(=O)c3cccs3)c(-c3cccs3)c12 [Compound 257] | 10 to 999
18 | Cc1cc(=O)oc2c1ccc1oc(C(=O)c3ccc(F)cc3)c(-c3ccccc3)c12 [Compound 46] | 10 to 999
19 | Cc1cc(=O)oc2c1ccc1oc(C(=O)c3ccccc3F)c(-c3ccccc3)c12 [Compound 44] | 10 to 999

Row | Compound | IC50 [nM]
20 | COc1cccc(C(=O)c2oc3ccc4c(C)cc(=O)oc4c3c2-c2cccc(Br)c2)c1 [Compound 256] | 10 to 999
21 | C#CCOc1cccc(C(=O)c2oc3ccc4c(C)cc(=O)oc4c3c2-c2ccccc2)c1 [Compound 233] | 10 to 999
22 | CCCCCc1c(C(=O)c2ccccc2)oc2ccc3c(C)cc(=O)oc3c12 [Compound 156] | 10 to 999
23 | Cc1cc(=O)oc2c1ccc1oc(C(=O)c3ccccc3)c(-c3ccco3)c12 [Compound 159] | 10 to 999
24 | Cc1cc(=O)oc2c1ccc1oc(C(=O)c3ccccc3)c(-c3ccccc3Br)c12 [Compound 138] | 10 to 999
25 | CCOc1cccc(C(=O)c2oc3ccc4c(C)cc(=O)oc4c3c2-c2cccc(Br)c2)c1 [Compound 260] | 10 to 999
26 | Cc1cc(=O)oc2c1ccc1oc(C(=O)c3cccc(Cl)c3)c(-c3ccccc3)c12 [Compound 48] | 10 to 999
27 | CCCc1c(C(=O)c2ccccc2)oc2ccc3c(C)cc(=O)oc3c12 [Compound 155] | 10 to 999
28 | CCOc1cccc(C(=O)c2oc3ccc4c(C)cc(=O)oc4c3c2-c2ccccc2)c1 [Compound 68] | 10 to 999
29 | Cc1cc(=O)oc2c1ccc1oc(C(O)c3ccccc3)c(-c3ccccc3)c12 (stereo not drawn) [Compound 172] | 10 to 999
30 | Cc1cc(=O)oc2c1ccc1oc(C(=O)c3cccc(OCC4CC4)c3)c(-c3ccccc3)c12 [Compound 179] | 10 to 999
31 | Cc1cc(=O)oc2c1ccc1sc(C(=O)c3ccccc3)c(-c3ccccc3)c12 [Compound 26] | 10 to 999
32 | Cc1cc(=O)oc2c1ccc1oc(C(=O)c3cccc(OCCO[Si](C)(C)C(C)(C)C)c3)c(-c3ccccc3)c12 [Compound 189] | 10 to 999
33 | CC(=O)Oc1cccc(C(=O)c2oc3ccc4c(C)cc(=O)oc4c3c2-c2ccccc2)c1 [Compound 180] | 10 to 999
34 | Cc1cc(=O)oc2c1ccc1oc(C(=O)c3ccccc3)c(-c3cccc(N)c3)c12 [Compound 146] | 10 to 999
35 | Cc1cc(=O)oc2c1ccc1oc(C(=O)c3ccccc3)c(-c3ccccc3Cl)c12 [Compound 135] | 10 to 999
36 | Cc1cc(=O)oc2c1ccc1oc(C(=O)c3cccc(Cl)c3)c(-c3ccc(F)cc3)c12 [Compound 222] | 10 to 999
37 | C=CCCOc1cccc(C(=O)c2oc3ccc4c(C)cc(=O)oc4c3c2-c2ccccc2)c1 [Compound 77] | 10 to 999

same assay, conditions: MDCK cells, 72 h, ranges given, read-out: IC50 (concentration reducing virus-induced cytopathic effect by 50%)

Row | Compound | IC50 [nM]
38 | Cc1cc(=O)oc2c1ccc1oc(C(=O)c3cccc(OCCOC4OC(O)C(O)C(O)C4CO)c3)c(-c3ccccc3)c12 (stereo not drawn) [Compound 195] | 6000 to 25000
39 | COc1ccc(C(=O)c2oc3ccc4c(C)cc(=O)oc4c3c2-c2ccccc2)cc1 [Compound 32] | 1000 to 5900
40 | Cc1cc(=O)oc2c1ccc1oc(C(=O)c3cccc(OCCOCCOCCOCCCl)c3)c(-c3ccccc3)c12 [Compound 178] | 1000 to 5900
41 | Cc1cc(=O)oc2c1ccc1oc(C(=O)c3cccc(OCCCN4CCCCC4)c3)c(-c3ccccc3)c12 [Compound 84] | 6000 to 25000
42 | Cc1cc(=O)oc2c1ccc1oc(C(=O)c3cccc(Cl)c3)c(-c3ccc(Br)cc3)c12 [Compound 217] | 6000 to 25000
43 | Cc1ccc(C(=O)c2oc3ccc4c(C)cc(=O)oc4c3c2-c2ccccc2)o1 [Compound 94] | 6000 to 25000
44 | Cc1cc(=O)oc2c1cc(CC1CO1)c1oc(C(=O)c3ccccc3)c(-c3ccccc3)c12 (stereo not drawn) [Compound 18] | 1000 to 5900
45 | Cc1cc(=O)oc2c1ccc1oc(C(=O)c3ccccc3)c(-c3ccc(Cl)c(Cl)c3)c12 [Compound 224] | 6000 to 25000
46 | Cc1cc(=O)oc2c1ccc1oc(C(=O)c3cccc(OCCN4Cc5ccccc5C4)c3)c(-c3ccccc3)c12 [Compound 241] | 1000 to 5900
47 | Cc1cc(=O)oc2c1ccc1oc(C(=O)c3ccc(Cl)cc3)c(-c3ccccc3)c12 [Compound 49] | 6000 to 25000
48 | Cc1cc(=O)oc2c1ccc1oc(C(=O)c3cccc(OCCOCCOCCO)c3)c(-c3ccccc3)c12 [Compound 177] | 6000 to 25000
49 | Cc1cc(=O)oc2c1ccc1oc(C(=O)c3cccc(OCCCCCO)c3)c(-c3ccccc3)c12 [Compound 187] | 1000 to 5900
50 | Cc1cc(=O)oc2c1ccc1oc(C(=O)c3cccc(OCCCO[Si](C)(C)C(C)(C)C)c3)c(-c3ccccc3)c12 [Compound 190] | 1000 to 5900
51 | Cc1cc(=O)oc2c1ccc1oc(C(=O)c3ccccc3)cc12 [Compound 153] | 1000 to 5900
52 | Cc1cc(=O)oc2c1ccc1oc(C(=O)c3cccc(OCCN4CCc5ccccc5C4)c3)c(-c3ccccc3)c12 [Compound 240] | 1000 to 5900
53 | Cc1cc(=O)oc2c1ccc1oc(C(=O)c3cccc(OC(=O)C#Cc4ccccc4)c3)c(-c3ccccc3)c12 [Compound 201] | 1000 to 5900

Row | Compound | IC50 [nM]
54 | COc1ccc(C(=O)c2oc3ccc4c(C)cc(=O)oc4c3c2-c2ccccc2)c(OC)c1 [Compound 56] | 6000 to 25000
55 | Cc1cc(=O)oc2c1ccc1oc(C(=O)c3cc(Cl)sc3Cl)c(-c3ccccc3)c12 [Compound 97] | 1000 to 5900
56 | Cc1cc(=O)oc2c1ccc1oc(C(=O)c3ccccc3)c(-c3cccc(F)c3)c12 [Compound 133] | 1000 to 5900
57 | Cc1cc(=O)oc2c1ccc1oc(C(=O)c3cccc(OCCCl)c3)c(-c3ccccc3)c12 [Compound 73] | 1000 to 5900
58 | Cc1cc(=O)oc2c1ccc1oc(C(=O)c3ccccc3)c(-c3ccc(O)cc3)c12 [Compound 239] | 1000 to 5900
59 | Cc1cc(=O)oc2c1ccc1oc(C(=O)c3ccc([N+](=O)[O-])cc3)c(-c3ccc(Br)cc3)c12 [Compound 216] | 6000 to 25000
60 | CC(=O)OCC1C(OCCOc2cccc(C(=O)c3oc4ccc5c(C)cc(=O)oc5c4c3-c3ccccc3)c2)OC(OC(C)=O)C(OC(C)=O)C1OC(C)=O (stereo not drawn) [Compound 194] | 6000 to 25000
61 | Cc1cc(=O)oc2c1ccc1oc(C(=O)c3cccc(OCCO)c3)c(-c3ccccc3)c12 [Compound 184] | 6000 to 25000
62 | C=CC(=O)Oc1cccc(C(=O)c2oc3ccc4c(C)cc(=O)oc4c3c2-c2ccccc2)c1 [Compound 182] | 1000 to 5900
63 | Cc1cc(=O)oc2c1ccc1oc(C(=O)c3cccc(OCCCO)c3)c(-c3ccccc3)c12 [Compound 185] | 1000 to 5900
64 | COc1ccc(-c2c(C(=O)c3ccccc3)oc3ccc4c(C)cc(=O)oc4c23)cc1 [Compound 248] | 6000 to 25000
65 | Cc1cc(=O)oc2c1ccc1oc(C(=O)c3ccc4ccccc4c3)c(-c3ccc(F)cc3)c12 [Compound 220] | 1000 to 5900
66 | Cc1cc(=O)oc2c1ccc1oc(C(=O)c3ccccc3)c(-c3ccc4ccccc4c3)c12 [Compound 147] | 1000 to 5900
67 | Cc1cc(=O)oc2c1ccc1oc(C(=O)c3cccs3)c(-c3ccc(Br)cc3)c12 [Compound 254] | 1000 to 5900
68 | Cc1cc(=O)oc2c1ccc1oc(C(=O)c3cccc(C#N)c3)c(-c3ccccc3)c12 [Compound 42] | 1000 to 5900
69 | Cc1cc(=O)oc2c1ccc1oc(C(=O)c3cccc(N)c3)c(-c3ccccc3)c12 [Compound 67] | 1000 to 5900
